Tests used:
Type in all cases: cell-based
[1] = test system: normal human epidermal keratinocytes (NHEK); assay: Human epidermal keratinocyte proliferation assay; details: together with calcitriol, three days, [3H]-thymidine 18 h
Procedure: 1. HEK Cell Media • Supplemented KGM media with additional reagents provided in the bullet kit as per supplier's instructions. • Added calcium chloride to final concentration of 0.3 mM.
2. Calcitriol Dilutions • Stock: Calcitriol (1 mM)
3. Substrate Dilutions • Stock: substrate (0.1 mM)
1. Cell Culture • Thawed one vial of HEK cells containing at least 500 K, and divided into 5 25 cm^2 flasks with 5 ml HEK cell media. 24 h later, removed media and replenished with 5 ml fresh media. Changed media again 48 h later.
2. Preparation of Cell Suspension • On the day of the assay, washed the monolayer of HEK cells once with 1×PBS buffer (provided in reagent pack) and then trypsinized for 5 min at 37° C. Added trypsin neutralizing solution (provided in reagent pack). Collected cells into tube, centrifuged cells (500×g, 5 min) and resuspended in HEK cell media. Counted cells and adjusted density to 150,000 cells/ml. Diluted cells further 1:30 with HEK cell media.
2. Cell Plating • Added 150 μl of cell suspension to appropriately labelled wells of a 96-well plate. Incubated plate for 48 h at 37° C. in a humidified atmosphere containing 5% CO2 for adherence of cells to wells.
3. […]
4. Cell Harvesting and Counting • Added 0.2 μCi/well of [^3H]-thymidine in 20 μl of HEK cell media to each well. Incubated plates for 18 h at 37° C. in a humidified atmosphere containing 5% CO2. Aspirated media and washed with 1×PBS. Trypsinize-cells for 30 min at 37° C. in a humidified atmosphere containing 5% CO2. Harvested cells onto filter plates using Tomtec cell harvester as per manufacturer's instructions. Added 25 μl scintillation fluid per well. Measured radioactivity using a scintillation counter. All values were normalized for background.

SCC-25 cells = assay: [3H]-thymidine proliferation assay with SCC-25 cells; details: together with calcitriol, three days, [3H]-thymidine 6 h
Procedure: 1. Preparation of Cell Suspension • When SCC-25 cells were 70-80% confluent, aspirated media. Washed the cells with 1×PBS. Trypsinized with trypsin-EDTA from the plate, collected cells from the tissue culture flask, centrifuged (500×g, 5 min) and resuspended in media.
2. Cell Plating. • Counted the cells and adjusted the cell density to 10,000/ml. Added 200 μl per well in a 96 well plate. Incubated plate for 24 h at 37° C. in a humidified atmosphere plus 5% CO2. Aspirated used media and replaced with 150 μl per well with media.
3. Compound Addition. • Added 25 μl of 1α,25(OH)2D3 (final concentration 10^−6M, 10^−7 M, 10^−8 M, M, 10^−10 M, 10^−11 M) into each designated well. Added 25 μl of substrate (final concentration 10^−7 M, 5×10^−8 M, 10^−8 M or 10^−9 M) into each designated well. Incubated plates for 3 days at 37° C. in a humidified atmosphere plus 5% CO2.
4. ^3H-Thymidine Incorporation. • Added ^3H-thymidine at 0.02 μCi per well and incubated at 37° C. in a humidified atmosphere plus 5% CO2 for 6 h.
(§1) 5. Plate Harvesting. • Aspirated all media and washed cells with 1×PBS. Trypsinized cells for 30 min at 37° C. in a humidified atmosphere plus 5% CO2. Harvested cells onto a 96 well filter plate (Millipore) using a Tomtec Cell Harvestor, according to manufacturers instructions.
(§2) 6. Scintillation Counting. • Added 25 μl of scintillation fluid per well. Counted the plate using a scintillation counter.

MCF-7 cells = assay: [3H]-thymidine proliferation assay with MCF-7 cells; details: together with calcitriol, three days, [3H]-thymidine 6 h
Procedure: 1. Preparation of Cell Suspension • When MCF-7 cells were 70-80% confluent, aspirated growth media. Washed the cells with 1×PBS. Trypsinized with trypsin-EDTA from the plate, collected cells from the tissue culture flask, centrifuged (500×g, 5 min) and resuspended in growth media.
2. Cell Plating. • Counted the cells and adjusted the cell density to 25,000/ml. Added 200 μl per well in a 96 well plate. Incubated plate for 24 h at 37° C. in a humidified atmosphere plus 5% CO2. Aspirated used media and replaced with 150 μl per well with proliferation media.
3. Substrate Addition. • Added 25 μl of 1α,25(OH)2D3 (final concentration 10^−6 M, 10^−7 M, 10^−8 M, 10^−9 M, 10^−10 M, 10^−11 M) into each designated well. Added 25 μl of substrate (final concentration 10^−7 M, 5×10^−8 M, 10^−8 M or 10^−9 M) into each designated well. Incubated plates for 3 days at 37° C. in a humidified atmosphere plus 5% CO2.
4. ^3H-Thymidine incorporation. • Added ^3H-thymidine at 0.02 μCi per well and incubated at 37° C. in a humidified atmosphere plus 5% CO2 for 6 h.
as §1, §2

## C=C1/C(=C\C=C2/CCC[C@]3(C)[C@@H]([C@H](C)CCS(=N)(=O)c4ccccc4)CC[C@@H]23)C[C@@H](O)C[C@@H]1O (single isomer, unassigned) [I(a)]
[1]
  inhibition of proliferation of normal human epidermal keratinocytes (NHEK): act to inhibit the proliferation
SCC-25 cells
  inhibition of proliferation of SCC-25 cells: act to inhibit the proliferation
MCF-7 cells
  inhibition of proliferation of MCF-7 cells: act to inhibit the proliferation

## C=C1/C(=C\C=C2/CCC[C@]3(C)[C@@H]([C@H](C)CCS(=O)(=NC)c4ccccc4)CC[C@@H]23)C[C@@H](O)C[C@@H]1O (single isomer, unassigned) [I(e)]
[1]
  inhibition of proliferation of normal human epidermal keratinocytes (NHEK): act to inhibit the proliferation
SCC-25 cells
  inhibition of proliferation of SCC-25 cells: act to inhibit the proliferation
MCF-7 cells
  inhibition of proliferation of MCF-7 cells: act to inhibit the proliferation

## C=C1/C(=C\C=C2/CCC[C@]3(C)[C@@H]([C@H](C)CCS(=O)(=NC)c4ccccc4)CC[C@@H]23)C[C@@H](O)C[C@@H]1O (single isomer, unassigned) [I(g)]
SCC-25 cells
  inhibition of proliferation of SCC-25 cells: act to inhibit the proliferation
MCF-7 cells
  inhibition of proliferation of MCF-7 cells: act to inhibit the proliferation

## C[C@H](CCS(=N)(=O)c1ccccc1)[C@H]1CC[C@H]2/C(=C/C=C3C[C@@H](O)C[C@H](O)C3)CCC[C@]12C (single isomer, unassigned) [I(i), 24-Phenyl Sulfoximine 19-Nor-Vitamin-D3]
[1]
  inhibition of proliferation of normal human epidermal keratinocytes (NHEK): act to inhibit the proliferation
SCC-25 cells
  inhibition of proliferation of SCC-25 cells: act to inhibit the proliferation
MCF-7 cells
  inhibition of proliferation of MCF-7 cells: act to inhibit the proliferation

— patent US7973024B2, “24-sulfoximine vitamin D3 compounds” (Cyctochroma Inc., priority 2002, dated 2011)
